Consider 56 molecules from ChEMBL document CHEMBL5726389, “Heterocyclic compounds and uses thereof” (2017).

By IC50 is commonly meant the concentration that gives 50% inhibition. Low readings indicate higher potency, high ones lower potency.

A short description of the assay: The TLC plates are then dried, exposed to a phosphorimager screen (Storm, Amersham), and quantitated. For each compound, kinase activity is measured at 10-12 inhibitor concentrations representing two-fold dilutions from the highest concentration tested (typically, 200 μM).
`C[C@H](NC(=O)c1c(N)nn2cccnc12)c1cc2cccc(Cl)c2c(=O)n1-c1ccc(S(C)(=O)=O)cc1`: the concentration for half-maximal inhibition (IC50) entry was “in the range around 5.5 µM”.

As to `C[C@H](NC(=O)c1c(N)nn2cccnc12)c1cc2cccc(Cl)c2c(=O)n1CCS(N)(=O)=O`, the IC50 entry was “in the range around 5.5 µM”. Regarding `C#CCCn1c([C@H](C)NC(=O)c2c(N)nn3cccnc23)cc2cccc(Cl)c2c1=O`, the 50% inhibitory concentration (IC50) result was “in the range around 5.5 µM”.

`C[C@H](NC(=O)c1c(N)nn2cccnc12)c1cc2cccc(Cl)c2c(=O)n1-c1ccccc1NS(C)(=O)=O`: the concentration for half-maximal inhibition (IC50) entry is “in the range around 5.5 µM”. Regarding `C[C@H](NC(=O)c1c(N)nn2cccnc12)c1cc2cccc(OCc3cnn(C)c3)c2c(=O)n1-c1ccccc1`, the IC50 result is “in the range around 5.5 µM”.

Take `C[C@H](NC(=O)c1c(N)nn2cccnc12)c1nc2cccc(Cl)c2c(=O)n1-c1ccc(F)c(F)c1`: the IC50 result is “in the range around 5.5 µM”. With `C[C@H](NC(=O)c1c(N)nn2cccnc12)c1cc2cccc(Cl)c2c(=O)n1-c1cccnc1` the entry was “in the range around 5.5 µM”; with `C[C@H](NC(=O)c1c(N)nn2cccnc12)c1oc2ccc(F)cc2c(=O)c1-c1ccccc1`, “in the range around 5.5 µM”; with `C[C@H](NC(=O)c1c(N)nn2cccnc12)c1cc2cccc(OCC(F)(F)F)c2c(=O)n1-c1ccccc1`, “in the range around 5.5 µM”. In the case of `C[C@H](NC(=O)c1c(N)nn2cccnc12)c1cc2cccc(-c3cnn(CC#N)c3)c2c(=O)n1-c1ccccc1`, the IC50 entry is “in the range around 5.5 µM”. With `C[C@H](NC(=O)c1c(N)nn2cccnc12)c1cc2cccc(Cl)c2c(=O)n1CCCS(C)(=O)=O` the entry was “in the range around 5.5 µM”; with `C[C@H](NC(=O)c1c(N)ncn2ccnc12)c1cc2cccc(Cl)c2c(=O)n1-c1ccccc1`, “in the range around 5.5 µM”; with `C[C@H](NC(=O)c1c(N)nn2cccnc12)c1nc2cccc(Cl)c2c(=O)n1-c1ccc(F)cc1`, “in the range around 5.5 µM”.

As to `C[C@H](NC(=O)c1c(N)nn2cccnc12)c1cc2cccc(Cl)c2c(=O)n1-c1cccc(S(C)(=O)=O)c1`, the half-maximal inhibitory concentration (IC50) entry was “in the range around 5.5 µM”. Turning to `C[C@H](NC(=O)c1nccnc1N)c1cc2cccc(C(F)(F)F)c2c(=O)n1-c1ccccc1`, the IC50 entry is “in the range around 5.5 µM”. Next, `C[C@H](NC(=O)c1c(N)nn2cccnc12)c1cc2cccc(Cl)c2c(=O)n1C1CCC1`: “in the range around 5.5 µM”. With `CC(=O)Cc1cccc2nc([C@H](C)NC(=O)c3c(N)nn4cccnc34)n(-c3ccccc3)c(=O)c12` the entry was “in the range around 5.5 µM”; with `C[C@H](NC(=O)c1c(N)nn2cccnc12)c1cc2cccc(Cl)c2c(=O)n1CCc1nnnn1C`, “in the range around 5.5 µM”; with `Cc1noc(CCn2c([C@H](C)NC(=O)c3c(N)nn4cccnc34)cc3cccc(Cl)c3c2=O)n1`, “in the range around 5.5 µM”.

On to `CCS(=O)(=O)NCCn1c([C@H](C)NC(=O)c2c(N)nn3cccnc23)cc2cccc(Cl)c2c1=O`, for which the IC50 result is “in the range around 5.5 µM”. With `C[C@H](NC(=O)c1c(N)nn2cccnc12)c1cc2cccc(Cl)c2c(=O)n1CCNS(C)(=O)=O` the entry was “in the range around 5.5 µM”; with `C[C@H](NC(=O)c1c(N)nn2cccnc12)c1cc2cccc(CC(=O)C(C)(C)C)c2c(=O)n1-c1ccccc1`, “in the range around 5.5 µM”. With `COc1ccccc1-n1c([C@H](C)NC(=O)c2c(N)nn3cccnc23)cc2cccc(Cl)c2c1=O` the entry was “in the range around 5.5 µM”; with `C[C@H](NC(=O)c1c(N)nn2cccnc12)c1cc2cccc(Cl)c2c(=O)n1CCc1ncn[nH]1`, “in the range around 5.5 µM”; with `CNS(=O)(=O)CCn1c([C@H](C)NC(=O)c2c(N)nn3cccnc23)cc2cccc(Cl)c2c1=O`, “in the range around 5.5 µM”. As to `C[C@H](NC(=O)c1c(N)nn2cccnc12)c1cc2cccc(Cl)c2c(=O)n1CCc1c[nH]cn1`, the IC50 entry was “in the range around 5.5 µM”.

As for `C[C@H](NC(=O)c1c(N)nn2cccnc12)c1nc2c(Cl)cccc2c(=O)n1-c1ccccc1`, the half-inhibitory concentration (IC50) result was “in the range around 5.5 µM”. For the molecule `C[C@H](NC(=O)c1c(N)nn2cccnc12)c1cc2cccc(Cl)c2c(=O)n1CCc1cnn[nH]1`, the IC50 entry is “in the range around 5.5 µM”. For `Cc1cccc2c(=O)n(-c3ccccc3)c([C@H](C)NC(=O)c3c(N)nn4cccnc34)nc12`, the IC50 entry was “in the range around 5.5 µM”. With `C[C@H](NC(=O)c1c(N)nn2cccnc12)c1cc2cccc(Cl)c2c(=O)n1-c1ccccc1O` the entry was “in the range around 5.5 µM”; with `C[C@H](NC(=O)c1c(N)nn2cccnc12)c1cc2cccc(Cl)c2c(=O)n1-c1cccc(O)c1`, “in the range around 5.5 µM”. Next, `C[C@H](NC(=O)c1c(N)nn2cccnc12)c1cc2cccc(Cl)c2c(=O)n1CCS(=O)(=O)N(C)C`: “in the range around 0.75 µM”.

On to `C[C@H](NC(=O)c1nccnc1N)c1oc2ccc(F)cc2c(=O)c1-c1ccccc1`, for which the half-inhibitory concentration (IC50) entry is “in the range around 5.5 µM”.

With `C[C@H](NC(=O)c1c(N)nn2cccnc12)c1cc2cccc(Cl)c2c(=O)n1-c1ccc(NS(C)(=O)=O)cc1`, the IC50 entry was “in the range around 5.5 µM”. Next, `C[C@H](NC(=O)c1c(N)nn2cccnc12)c1cc2cccc(Cl)c2c(=O)n1CCc1noc(C(C)(C)C)n1`: “in the range around 5.5 µM”. Next, `CC(C)C(=O)Cc1cccc2cc([C@H](C)NC(=O)c3c(N)nn4cccnc34)n(-c3ccccc3)c(=O)c12`: “in the range around 5.5 µM”. With `C[C@H](NC(=O)c1c(N)nn2cccnc12)c1cc2cccc(Cl)c2c(=O)n1CCc1ccccc1`, the IC50 entry was “in the range around 5.5 µM”. Next, `C[C@H](NC(=O)c1c(N)nn2cccnc12)c1nc2ccccc2c(=O)n1-c1ccccc1`: “in the range around 5.5 µM”. As for `C[C@H](NC(=O)c1c(N)nn2cccnc12)c1cc2cccc(Cl)c2c(=O)n1-c1ccccc1F`, the half-maximal inhibitory concentration (IC50) entry was “in the range around 5.5 µM”.

Consider `C[C@H](NC(=O)c1c(N)nn2cccnc12)c1cc2cccc(Cl)c2c(=O)n1-c1cccc(NS(C)(=O)=O)c1`, for which the half-inhibitory concentration (IC50) result is “in the range around 5.5 µM”.

Take `C[C@H](NC(=O)c1nc(C2CC2)cnc1N)c1cc2cccc(Cl)c2c(=O)n1-c1ccccc1`: the IC50 entry was “in the range around 5.5 µM”. Next, `C[C@H](NC(=O)c1c(N)nn2cccnc12)c1cc2cccc(Cl)c2c(=O)n1CCCNS(C)(=O)=O`: “in the range around 0.75 µM”. On to `C[C@H](NC(=O)c1c(N)nn2cccnc12)c1nc2ccc(Cl)cc2c(=O)n1-c1ccccc1`, for which the IC50 result was “in the range around 5.5 µM”. With `C[C@H](NC(=O)c1c(N)nn2cccnc12)c1cc2cccc(Cl)c2c(=O)n1-c1ccc(O)cc1` the entry was “in the range around 5.5 µM”; with `Cc1ccnc2c(C(=O)N[C@@H](C)c3cc4cccc(Cl)c4c(=O)n3-c3ccccc3)c(N)nn12`, “in the range around 5.5 µM”.

`C[C@H](NC(=O)c1c(N)nn2cccnc12)c1cc2cccc(Cl)c2c(=O)n1CCc1nnn[nH]1`: the IC50 result is “in the range around 5.5 µM”. With `C[C@H](NC(=O)c1c(N)nn2cccnc12)c1cc2cccc(Cl)c2c(=O)n1Cc1nnn[nH]1` the entry was “in the range around 5.5 µM”; with `Cc1ccccc1-n1c([C@H](C)NC(=O)c2c(N)nn3cccnc23)cc2cccc(Cl)c2c1=O`, “in the range around 5.5 µM”. Next, `CCn1cc(-c2cccc3cc([C@H](C)NC(=O)c4c(N)nn5cccnc45)n(-c4ccccc4)c(=O)c23)cn1`: “in the range around 5.5 µM”; `Cc1cccc(-n2c([C@H](C)NC(=O)c3c(N)nn4cccnc34)cc3cccc(Cl)c3c2=O)c1`: “in the range around 5.5 µM”. With `C[C@H](NC(=O)c1c(N)nn2cccnc12)c1cc2cccc(-c3cnn(CC(F)(F)F)c3)c2c(=O)n1-c1ccccc1` the entry was “in the range around 5.5 µM”. On to `C[C@H](NC(=O)c1nccnc1N)c1nc2cccc(Cl)c2c(=O)n1-c1ccc(F)cc1`, for which the half-maximal inhibitory concentration (IC50) entry was “in the range around 5.5 µM”. Next, `Cc1ccc(-n2c([C@H](C)NC(=O)c3c(N)nn4cccnc34)cc3cccc(Cl)c3c2=O)cc1`: “in the range around 5.5 µM”. Next, `C[C@H](NC(=O)c1c(N)nn2cccnc12)c1nc2cccc(N3CCOCC3)c2c(=O)n1-c1ccccc1`: “in the range around 5.5 µM”. With `C[C@H](NC(=O)c1c(N)nn2cccnc12)c1cc2cccc(Cl)c2c(=O)n1CCc1nnn(C)n1` the entry was “in the range around 5.5 µM”; with `C[C@H](NC(=O)c1c(N)nn2cccnc12)c1cc2cccc(Cl)c2c(=O)n1C1CC(NS(C)(=O)=O)C1` (stereo partly specified), “in the range around 5.5 µM”.
